In the CheMixHub viscosity set:
Several values for one entry are separate records, joined by “and”; a condition that tells them apart may be missing. Identical values can stand only once.

Tests used:
[1] = xn = mol fraction of the nth substance listed

OCC1CCCCC1
Conditions | viscosity [mPa·s]
293.15 K, 100 kPa | 37.75

OCCCOCCCO
101 kPa
Conditions | viscosity [mPa·s]
293.15 K | 115
298.15 K | 78.2
303.15 K | 51.1
308.15 K | 37.2
313.15 K | 27.4
318.15 K | 20.8

OCCNCCO
viscosity
Conditions | 293.15 K | 298.15 K | 303.15 K | 308.15 K | 313.15 K | 318.15 K | 323.15 K
101 kPa | 841.5 mPa·s and 742 mPa·s | – | 365.7 mPa·s and 379.3 mPa·s | 263.1 mPa·s | 179.8 mPa·s and 186.4 mPa·s | 134.5 mPa·s | 89.7 mPa·s and 111 mPa·s and 98.85 mPa·s
101.33 kPa | – | 566.3 mPa·s | – | – | – | – | –

c1ccc2ncccc2c1
Conditions | viscosity
293.15 K, 101 kPa | 3.64 mPa·s
293.25 K, 101 kPa | 3.635 mPa·s
298 K, 101.3 kPa | 3.475 mPa·s
298.15 K, 101.33 kPa | 3.36 mPa·s
303 K, 101.3 kPa | 3.092 mPa·s
303.05 K, 101 kPa | 2.943 mPa·s
303.15 K, 101 kPa | 2.94 mPa·s and 3.1 mPa·s
303.15 K, 101.33 kPa | 3.01 mPa·s
308 K, 101.3 kPa | 2.777 mPa·s
308.15 K, 101.33 kPa | 2.68 mPa·s
313 K, 101.3 kPa | 2.489 mPa·s
313.15 K, 101 kPa | 2.385 mPa·s and 2.384 mPa·s
313.15 K, 101.33 kPa | 2.43 mPa·s
318 K, 101.3 kPa | 2.243 mPa·s and 2.242 mPa·s
318.15 K, 101.33 kPa | 2.21 mPa·s
323.15 K, 101.33 kPa | 2.03 mPa·s

COC(C)=O + c1ccccc1
[1], 101 kPa
Conditions | viscosity [mPa·s]
293.15 K, x1 = 0.5 | 0.48
298.15 K, x1 = 0.0436 | 0.587
298.15 K, x1 = 0.1504 | 0.55
298.15 K, x1 = 0.2504 | 0.52
298.15 K, x1 = 0.3483 | 0.494
298.15 K, x1 = 0.441 | 0.472
298.15 K, x1 = 0.4878 | 0.462
298.15 K, x1 = 0.5512 | 0.449
298.15 K, x1 = 0.6492 | 0.431
298.15 K, x1 = 0.7483 | 0.415
298.15 K, x1 = 0.8514 | 0.401
298.15 K, x1 = 0.9486 | 0.389
298.15 K, x2 = 0.1115 | 0.363
298.15 K, x2 = 0.1916 | 0.374
298.15 K, x2 = 0.293 | 0.388
298.15 K, x2 = 0.3964 | 0.407
298.15 K, x2 = 0.4965 | 0.429
298.15 K, x2 = 0.6017 | 0.454
298.15 K, x2 = 0.6991 | 0.482
298.15 K, x2 = 0.7955 | 0.512
298.15 K, x2 = 0.8946 | 0.548
303.15 K, x1 = 0.5 | 0.428
308.15 K, x1 = 0.0436 | 0.513
308.15 K, x1 = 0.1504 | 0.485
308.15 K, x1 = 0.2504 | 0.461
308.15 K, x1 = 0.3483 | 0.441
308.15 K, x1 = 0.441 | 0.423
308.15 K, x1 = 0.4878 | 0.415
308.15 K, x1 = 0.5 | 0.406
308.15 K, x1 = 0.5512 | 0.405
308.15 K, x1 = 0.6492 | 0.39
308.15 K, x1 = 0.7483 | 0.377
308.15 K, x1 = 0.8514 | 0.365
308.15 K, x1 = 0.9486 | 0.356
313.15 K, x2 = 0.1115 | 0.321
313.15 K, x2 = 0.1916 | 0.33
313.15 K, x2 = 0.293 | 0.339
313.15 K, x2 = 0.3964 | 0.354
313.15 K, x2 = 0.4965 | 0.37
313.15 K, x2 = 0.6017 | 0.388
313.15 K, x2 = 0.6991 | 0.407
313.15 K, x2 = 0.7955 | 0.429
313.15 K, x2 = 0.8946 | 0.455

COCCOC + c1ccccc1
[1], 298.15 K, 101 kPa
Conditions | viscosity [mPa·s]
x1 = 0.0878 | 0.571
x1 = 0.1781 | 0.545
x1 = 0.2708 | 0.524
x1 = 0.3662 | 0.504
x1 = 0.4643 | 0.484
x1 = 0.5652 | 0.467
x1 = 0.6691 | 0.45
x1 = 0.7761 | 0.435
x1 = 0.8864 | 0.42

O=C(O)c1ccccc1 + c1ccccc1
viscosity, [1]
Conditions | 303.15 K | 308.15 K | 313.15 K | 318.15 K
101 kPa, x1 = 0.0581 | 0.6414 mPa·s | 0.5991 mPa·s | 0.5625 mPa·s | 0.5267 mPa·s
101 kPa, x1 = 0.105 | – | 0.6626 mPa·s | 0.622 mPa·s | 0.5832 mPa·s
101.33 kPa, x1 = 0.0581 | 0.6414 mPa·s | 0.5991 mPa·s | 0.5625 mPa·s | 0.5267 mPa·s
101.33 kPa, x1 = 0.05813 | – | 0.5991 mPa·s | – | 0.5267 mPa·s
101.33 kPa, x1 = 0.06979 | – | 0.616 mPa·s | – | 0.5401 mPa·s
101.33 kPa, x1 = 0.08477 | – | 0.6421 mPa·s | – | 0.56 mPa·s
101.33 kPa, x1 = 0.105 | – | 0.6626 mPa·s and 0.6626 mPa·s | 0.622 mPa·s | 0.5832 mPa·s and 0.5832 mPa·s
101.33 kPa, x1 = 0.1232 | – | – | – | 0.61 mPa·s
